Drawing on US5250540A, “Aminomethyl-substituted 2,3-dihydropyrano[2,3-b]pyridines and their use in medicaments” (Bayer Aktiengesellschaft, priority 1991, dated 1993), this text covers Ki for one molecule.

The assay addresses 5-HT1-receptor (5-hydroxytryptamine receptors of subtype 1). The experiment in a line: receptor binding studies using preparations of calf hippocampus membranes, radioligand 3H-serotonin. Particulars: ^3 H-serotonin as radioactively labelled ligand. The text has this:
In Table 1 the high affinity of the compounds according to the invention for 5-hydroxytryptamine receptors of subtype 1 is exemplified. The values given relate to data obtained from receptor binding studies using preparations of calf hippocampus membranes. The radioactively labelled ligand used for this was ^3 H-serotonin.

pKi: −log10 of the molar value. Counter-ions that a name gives are not always drawn.

Turning to `O=C1c2ccccc2S(=O)(=O)N1CCCCNCC1CCc2cccnc2O1` (stereo not shown) [Example 4, 2-N-(4-Butylsaccharinyl)-aminomethyl-2,3-dihydropyrano2,3-b]pyridine HCl salt], the negative-log Ki (pKi) was 9.00.

In general, pKi refers to the Ki on a negative log10 scale, so that one unit is a factor of ten.
